One compound from article PMC12463058, “SF3A3 Drives Tumorigenesis in Endometrial Cancer by Enhancing c‐FOS Expression and Represents a Potential Therapeutic Target” (Advanced Science, 2025) can be followed below.

As a reminder, the Kd is the free concentration of one partner at which half of the binding sites on the other are occupied at equilibrium, for simple one-to-one binding. High values mean a looser complex, low ones a tighter complex.

The target in the experiment is T1, splicing factor 3A subunit 3 (SF3A3) (Homo sapiens, UniProt Q12874).
T1 sequence (Q12874 1-501): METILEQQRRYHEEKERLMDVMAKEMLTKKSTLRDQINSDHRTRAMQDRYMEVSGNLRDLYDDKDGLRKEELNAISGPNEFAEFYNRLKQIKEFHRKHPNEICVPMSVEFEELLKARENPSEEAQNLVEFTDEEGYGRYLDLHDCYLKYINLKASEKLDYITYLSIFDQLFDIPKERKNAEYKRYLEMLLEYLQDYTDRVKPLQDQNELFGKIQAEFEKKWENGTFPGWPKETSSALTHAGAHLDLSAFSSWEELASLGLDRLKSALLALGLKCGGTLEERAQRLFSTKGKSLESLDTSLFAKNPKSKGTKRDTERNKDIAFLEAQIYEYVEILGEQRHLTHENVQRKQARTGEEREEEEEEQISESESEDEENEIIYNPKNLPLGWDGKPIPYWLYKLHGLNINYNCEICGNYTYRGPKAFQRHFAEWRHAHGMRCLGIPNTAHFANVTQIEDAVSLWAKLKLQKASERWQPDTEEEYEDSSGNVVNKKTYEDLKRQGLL
Nature of the experiment: SPR (Biacore 8K, immobilized purified human SF3A3, steady-state affinity); supported by pulldown mass spectrometry. Format: binding. For orientation: In SPR one partner is held on a chip, and binding of the other changes the refractive index at the surface.

Take `S=C=NCCc1ccccc1` [PEITC]: binding was put at a Kd of 10.1 µM.
